16 compounds from patent US4659727A, “Ethene derivatives” (May & Baker Limited, priority 1984, dated 1987) can be followed below.

As usually defined, the ED50 is the dose that gives a 50% effect, or the effect in half of the subjects. A word on the % inhibition: it is the drop in the measured response relative to a control, in per cent. A higher % inhibition goes with strong suppression.

Molecules are shown by their SMILES.

The test system of one test is mouse macrophage cells. Nature of the test: reduction by 50% of inhibition of migration of incubated mouse macrophage cells (antagonism or reduction of lymphokine levels). The test is classed as in vivo. The following applies: po, twice: one hour before and four hours after antigen, each time at the dose shown, mice. The method, then: For example, from tests in mice it was calculated that compounds of formula I, when twice administered orally, one hour before and four hours after the administration of antigen, each time at the doses shown in the following Table I, would reduce by 50% the inhibition of migration of incubated mouse macrophage cells measured in a manner similar to that described by Likhite et al, Cellular Immunology, Vol 5, 1972, page 377. This is a measure of antagonism or reduction of the levels of lymphokines and is indicative of utility in the treatment of arthritic patients.

A further test deals with lipoxygenase. The experiment in a line: inhibition of lipoxygenase in vitro. The test is classed as biochemical. The following applies: 0.0001M. From the text:
For example, in tests in vitro at concentrations of 0.0001M, a compound of formula I inhibited lipoxygenase by the percentage shown in the following Table III.

Test [1] has as its system delayed-type hypersensitivity (Type IV hypersensitivity reaction), foot pad swelling. The experiment in a line: delayed-type hypersensitivity (DTH) test, foot pad swelling. The test is classed as in vivo. Conditions: mice. The text has this:
Compounds of formula I were also submitted to the delayed-type hypersensitivity (DTH) test, which is an in-vivo model of cellular immunity (Type IV hypersensitivity reaction) which is suppressed by antirheumatic drugs. Previously sensitised mice receive antigen challenge (using methylated bovine serum albumen) by foot pad injection and the resulting foot pad swelling is compared in control animals and animals treated with compounds of formula I.

Where [2] appears, read: dose 50 mg/kg animal body weight.
Where [3] appears, read: dose 10 mg/kg animal body weight.

Compound `Cc1cc(C)nc(NC=CC=O)c1` [AI, 1-formyl-2-(4,6-dimethylpyrid-2-ylamino)ethene] registered an ED50 in the test on mouse macrophage cells of 5.2 mg/kg. In the test on mouse macrophage cells, `Cn1cc(C(N)=O)ccc1=NC=C(S(=O)(=O)c1ccccc1)S(=O)(=O)c1ccccc1` [AP, 2-[2,2-bis(phenylsulphonyl)ethen-1-ylimino]-5-carbamoyl-1-methylpyridine] registered an ED50 of under 10 mg/kg. `O=S(=O)(C(=CNc1nccnn1)S(=O)(=O)c1ccccc1)c1ccccc1` [C, 1,1-bis(phenylsulphonyl)-2-(1,2,4-triazin-3-ylamino)ethene]: in the test with mouse macrophage cells, the ED50 was found to be 2 mg/kg.

In turn, `O=S(=O)(C(=CNc1nccs1)S(=O)(=O)c1ccccc1)c1ccccc1` [Compound A, 1,1-bis(phenylsulphonyl)-2-(thiazol-2-ylamino)ethene] registered an ED50 with mouse macrophage cells of 10 mg/kg. As to `CCOC(=O)C(=CNc1ncccc1C)C(=O)OCC` [Compound AM, 1,1-bis(ethoxycarbonyl)-2-(3-methylpyrid-2-ylamino)ethene], the “% inhibition of lipoxygenase” value with lipoxygenase was 62%. Consider `O=[N+]([O-])c1ccc(N(C=CS(=O)(=O)c2ccccc2)c2ccc(Br)cn2)cc1` [Compound BE, 1-[N-(5-bromopyrid-2-yl)-N-(4-nitrophenyl)]amino-2-phenylsulphonylethene], for which the 50% effect level with mouse macrophage cells (ED50) was put at a dose of 4.4 mg/kg.

As for `O=S(=O)(C(=CNc1nc2ccccc2s1)S(=O)(=O)c1ccccc1)c1ccccc1` [D, 1-(benzothiazol-2-ylamino)-2,2-bis(phenylsulphonyl)ethene], the “% inhibition” value in test [1] (setting [2]) turned out to be 27%. In the case of `O=S(=O)(C(=CNc1cnc2ccccc2c1)S(=O)(=O)c1ccccc1)c1ccccc1` [E, 1,1-bis(phenylsulphonyl)-2-(quinol-3-ylamino)ethene], the figures for the “% inhibition” value in test [1] (setting [3]) and in test [1] (setting [2]) were 38% and 15%, respectively. For `O=S(=O)(C(=CNc1ccc2ccccc2n1)S(=O)(=O)c1ccccc1)c1ccccc1` [G, 1,1-bis(phenylsulphonyl)-2-(quinol-2-ylamino)ethene], in that order: 30% and 24%. In turn, `Cc1cc(NC=C(S(=O)(=O)c2ccccc2)S(=O)(=O)c2ccccc2)nc(C)n1` [H, 1-(2,6-dimethylpyrimidin-4-ylamino)-2,2-bis(phenylsulphonyl)ethene] displayed an ED50 in the test on mouse macrophage cells of under 10 mg/kg. Consider `NC(=O)c1cnc(NC=C(S(=O)(=O)c2ccccc2)S(=O)(=O)c2ccccc2)cn1` [I, 1-(5-carbamoylpyrazin-2-ylamino)-2,2-bis(phenylsulphonyl)ethene], for which the “% inhibition” value in test [1] (dose 40 mg/kg animal body weight) was 30%.

For the compound `CS(=O)(=O)C(C#N)=CNc1ccc(Br)cn1` [N, 2-(5-bromopyrid-2-ylamino)-1-cyano-1-methylsulphonylethene], the median effective dose (ED50) in the test on mouse macrophage cells was 28 mg/kg.

As to `CC(=O)C(=CNc1ccc(Br)cn1)S(=O)(=O)c1ccccc1` [O, 1-acetyl-2-(5-bromopyrid-2-ylamino)-1-phenylsulphonylethene], it took a dose of 14 mg/kg to reach the 50% effect level in the test with mouse macrophage cells (ED50).

In turn, `O=S(=O)(C(=CNCc1ccccc1)S(=O)(=O)c1ccc(Cl)cc1)c1ccc(Cl)cc1` [V, 2-benzylamino-1,1-bis(4-chlorophenylsulphonyl)ethene] had an ED50 in the test with mouse macrophage cells of under 10 mg/kg. In the test on mouse macrophage cells, `O=S(=O)(C(=CNCc1ccccn1)S(=O)(=O)c1ccc(Cl)cc1)c1ccc(Cl)cc1` [W, 1,1-bis(4-chlorophenylsulphonyl)-2-(pyrid-2-ylmethylamino)ethene] showed a median effective dose (ED50) of under 10 mg/kg. In the test with mouse macrophage cells, `O=S(=O)(C(=CNc1ccccc1)S(=O)(=O)c1ccccc1)c1ccccc1` [Z, 1-phenylamino-2,2-bis(phenylsulphonyl)ethene] registered an ED50 of 2 mg/kg.
